ChEMBL document CHEMBL1201862, “PubChem BioAssay data set” (2004)
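Grown in 96-well plates, cells were treated for 48 hours with each compound at five concentrations. Insufficient inhibition: endpoint recorded as highest concentration tested. GI50: concentration for 50% inhibition of growth.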 The source made the active and inactive calls. Cut-off read from the data, not from the text of the source: active = GI50 up to about 1.1 µM and inactive = higher.

What was measured:
Experiment in all cases: inhibition of tumour cell growth, NCI panel, 48 h
KM12 = test system: KM12
K562 = test system: K562
A549 = test system: A549
SR = test system: SR
SW-620 = test system: SW-620
HT-29 = test system: HT-29
OVCAR-8 = test system: OVCAR-8
PC-3 = test system: PC-3
HOP-92 = test system: HOP-92
SN12C = test system: SN12C
COLO 205 = test system: COLO 205
TK-10 = test system: TK-10
OVCAR-5 = test system: OVCAR-5
UACC-62 = test system: UACC-62
SF-539 = test system: SF-539
MDA-MB-231 = test system: MDA-MB-231
HCC 2998 = test system: HCC 2998
DU-145 = test system: DU-145
EKVX = test system: EKVX
HL-60 = test system: HL-60
NCI-H522 = test system: NCI-H522
SK-MEL-2 = test system: SK-MEL-2
NCI-H460 = test system: NCI-H460
NCI/ADR-RES = test system: NCI/ADR-RES
UACC-257 = test system: UACC-257
T47D = test system: T47D
HCT-116 = test system: HCT-116
MDA-MB-435 = test system: MDA-MB-435
SK-MEL-28 = test system: SK-MEL-28
Malme-3M = test system: Malme-3M
786-0 = test system: 786-0
IGROV-1 = test system: IGROV-1
CCRF-CEM = test system: CCRF-CEM
MOLT-4 = test system: MOLT-4
SK-MEL-5 = test system: SK-MEL-5
A498 = test system: A498
UO-31 = test system: UO-31
HCT-15 = test system: HCT-15
SF-268 = test system: SF-268
SF-295 = test system: SF-295
U-251 = test system: U-251
M14 = test system: M14
RPMI-8226 = test system: RPMI-8226
SNB-19 = test system: SNB-19
Hs-578T = test system: Hs-578T
CAKI-1 = test system: CAKI-1
MCF7 = test system: MCF7
NCI-H226 = test system: NCI-H226
BT-549 = test system: BT-549
LOX IMVI = test system: LOX IMVI
NCI-H23 = test system: NCI-H23
SK-OV-3 = test system: SK-OV-3
OVCAR-4 = test system: OVCAR-4
SNB-75 = test system: SNB-75
ACHN = test system: ACHN
OVCAR-3 = test system: OVCAR-3
MDA-N = test system: MDA-N
HOP-62 = test system: HOP-62

For COc1cccc(CCn2c(N)c(-c3ccccc3)c3ccc([N+](=O)[O-])cc3c2=O)c1, the GI50 (KM12) was 4.36 µM (inactive), the GI50 (K562) was 1.02 µM (active) and the GI50 (A549) was 9.62 µM (inactive). The GI50 (SR) was 6.61 µM (inactive), the GI50 (SW-620) was 25.7 µM (inactive) and the GI50 (HT-29) was 10.6 µM (inactive). For the same molecule, the GI50 (OVCAR-8) was 1.98 µM (inactive), the GI50 (PC-3) was 9.53 µM (inactive) and the GI50 (HOP-92) was 10.3 µM (inactive). For the same molecule, the GI50 (SN12C) was 0.664 µM (active), the GI50 (COLO 205) was 2.16 µM (inactive) and the GI50 (TK-10) was 2.07 µM (inactive). For the same molecule, the GI50 (OVCAR-5) was 14.3 µM (inactive), the GI50 (UACC-62) was 11.9 µM (inactive) and the GI50 (SF-539) was 2.51 µM (inactive). The GI50 (MDA-MB-231) was 8.45 µM (inactive), the GI50 (HCC 2998) was 11.1 µM (inactive) and the GI50 (DU-145) was 13.7 µM (inactive). For the same molecule, the GI50 (EKVX) was 12.3 µM (inactive), the GI50 (HL-60) was 5.47 µM (inactive) and the GI50 (NCI-H522) was 2.93 µM (inactive). For the same molecule, the GI50 (SK-MEL-2) was 16.7 µM (inactive), the GI50 (NCI-H460) was 13.6 µM (inactive) and the GI50 (NCI/ADR-RES) was 1.9 µM (inactive). For the same molecule, the GI50 (UACC-257) was 17.3 µM (inactive), the GI50 (T47D) was 2.05 µM (inactive) and the GI50 (HCT-116) was 3.3 µM (inactive). The GI50 (MDA-MB-435) was 21.9 µM (inactive), the GI50 (SK-MEL-28) was 17.5 µM (inactive) and the GI50 (Malme-3M) was 14.2 µM (inactive). For the same molecule, the GI50 (786-0) was 6.25 µM (inactive), the GI50 (IGROV-1) was 5.6 µM (inactive) and the GI50 (CCRF-CEM) was 11.4 µM (inactive). For the same molecule, the GI50 (MOLT-4) was 6.7 µM (inactive), the GI50 (SK-MEL-5) was 5.93 µM (inactive) and the GI50 (A498) was 1.82 µM (inactive). For the same molecule, the GI50 (UO-31) was 9.02 µM (inactive), the GI50 (HCT-15) was 7.08 µM and the GI50 (SF-268) was 16.2 µM (inactive). For the same molecule, the GI50 (SF-295) was 3.78 µM (inactive), the GI50 (U-251) was 9.29 µM (inactive) and the GI50 (M14) was 11.2 µM (inactive). The GI50 (RPMI-8226) was 0.499 µM (active), the GI50 (SNB-19) was 16 µM (inactive) and the GI50 (Hs-578T) was 1.85 µM (inactive). For the same molecule, the GI50 (CAKI-1) was 6.3 µM (inactive), the GI50 (MCF7) was 3.46 µM (inactive) and the GI50 (NCI-H226) was 3.05 µM (inactive). The GI50 (BT-549) was 1.61 µM (inactive), the GI50 (LOX IMVI) was 2.43 µM (inactive) and the GI50 (NCI-H23) was 3.16 µM (inactive). For the same molecule, the GI50 (SK-OV-3) was 5.07 µM (inactive), the GI50 (OVCAR-4) was 1.79 µM (inactive) and the GI50 (SNB-75) was 2.99 µM (inactive). For the same molecule, the GI50 (ACHN) was 5.25 µM (inactive), the GI50 (OVCAR-3) was 2.58 µM (inactive) and the GI50 (MDA-N) was 17.5 µM (inactive). The GI50 (HOP-62) was 6.56 µM (inactive).
